Measurements from patent US4874862A, “Process for preparing guanine derivatives” (Warner-Lambert Company, priority 1987, dated 1989).

Test system: T-cells
Assay: standard test of selective cytotoxicity for T-cells in the presence of 2'-deoxyguanosine
Assay type: cell-based
Conditions: in the presence of 10 uM of 2'-deoxyguanosine
Procedure: PNP-4 activity was measured radiochemically by measuring the formation of [^14 -C]-hypoxanthine from [^14 -C]-inosine [Biomedicine, 33, 39 (1980)] using human erythrocyte as the enzyme source. The same compounds also were found by a standard test (Science, 214, 1137, (1981)] to be selectively cytotoxic for T-cells in the presence of 2'-deoxyguanosine at a similar concentration range. For example, 8-amino-9-[(4-methylphenyl)methyl]guanine is selectively cytotoxic to T-cells at a concentration of about 3.1 uM in the presence of 10 uM of 2'-deoxyguanosine. Similarly, 8-amino-9-[(4-methoxyphenyl)methyl]guanine is selectively cytotoxic to T-cells at a concentration of about 1.1 uM in the presence of 10 uM of 2'-deoxyguanosine. On the other hand, these compounds were nontoxic to B-cells in the presence or absence of the same amount of 2'-deoxyguanosine. Since T-cells play a central role in immune response, use of the compounds of the invention is contemplated for the immunoregulation of rejection in transplantation and autoimmune disease such as rheumatoid arthritis, systemic lupus erythematosus, inflammatory bowel disease, cancer, juvenile diabetes, myasthenia gravis, multiple sclerosis, and viral diseases. […]

COc1ccc(Cn2c(N)nc3c(=O)[nH]c(N)nc32)cc1 [8-amino-9-[(4-methoxyphenyl)methyl]guanine]
concentration at which selectively cytotoxic to T-cells: about 1.1 uM

Cc1ccc(Cn2c(N)nc3c(=O)[nH]c(N)nc32)cc1 [8-amino-9-[(4-methylphenyl)methyl]guanine]
concentration at which selectively cytotoxic to T-cells: about 3.1 uM
